What all share (assay type): cell-based
Assay [1] relates to human monocyte-derived macrophages (human MDMs). The experiment in a line: Real-time oxygen consumption rate (OCR) and ECAR (Seahorse) in human MDMs. Particulars: 20 h. How it is done: (§1) Cells were plated at 1.8×10^6 cells per well in a Seahorse XF24 Cell Culture Microplate (Agilent). Cells were then treated with indicated inhibitors or agonists in each experiment for 20 h. Cells were washed twice with Agilent Seahorse XF Media (Agilent) supplemented with 1 mM pyruvate, 2 mM L-glutamine, and 10 mM D-glucose; a final volume of 525 μl was placed in each well. Cells were then incubated in a 0% CO2 chamber at 37° C. for 1 h before being placed into a Seahorse XFe24 Analyzer (Agilent). For OCR and ECAR mitostress test experiments, cells were treated with 1 μM oligomycin, 2 μM carbonyl cyanide p-trifluoromethoxyphenylhydrazone (FCCP), and 0.5 μM rotenone/antimycin (indicated by three black arrows in each seahorse trace). For mitoFlex Fuel test experiments, cells were treated with UK5099 (200 μM) and BPTES (200 μM)/Etomoxir (80 μM). A total of three OCR and pH measurements were taken after each compound was administered. All Seahorse experiments were repeated at least three times unless otherwise indicated. All OCR and ECAR data were normalized to cell number per well using CyQUANT (ThermoFisher Scientific, Waltham, Mass., USA).
Peripheral blood mononuclear cells from de-identified healthy donors (young<35 years old, aged>65 years old) were obtained from the Stanford Blood Center and transferred to 50 ml conical tubes. Samples were diluted with 20 ml PBS and layered onto 10 ml of Ficoll-Paque (GE Healthcare) using a Pasteur pipette. Tubes were centrifuged at 1,500 r.p.m. for 25 min without brake at 20° C. The mononuclear cell layer was transferred to a new 50 ml conical tube, resuspended in 50 ml 1×PBS and centrifuged at 1500 r.p.m. for 10 min, repeated twice. After centrifugation, monocytes were isolated using a Monocyte Isolation Kit, human (MACS; Miltenyi Biotech). Cells were then plated 10×10^6 per 10-cm petri dish and differentiated for 7 days in Roswell Park Memorial Institute (RPMI) media supplemented with 10% FBS, 1% penicillin-streptomycin, and 50 ng ml^−1 M-CSF (Peprotech).

Assay [2] has as its system mouse hippocampal neurons. The experiment in a line: OCR and ECAR (Seahorse) in mouse hippocampal neurons. Conditions: primary mouse hippocampal neurons, 100 nM, 20 h. How it is done: as §1
Hippocampi were dissected from embryonic Day 17.5 mice embryos, dissociated using trypsin (2 mg/ml) and DNase I (0.6 mg/ml), and plated at a density of 100, 000 cells per well in Seahorse XF24 culture plate coated with poly-L-lysine. […]

For the next assay, the system named is mouse astrocytes. The experiment in a line: OCR and ECAR (Seahorse) in mouse astrocytes. Conditions: primary mouse astrocytes, 100 nM, 20 h. How it is done:
as §1
Primary astrocyte cultures were prepared from cerebral cortices of postnatal day 1-2 C57BL/6J mice. […]

Assay [3] concerns mouse peritoneal macrophages. The experiment in a line: OCR and ECAR (Seahorse) in mouse peritoneal macrophages. Particulars: aged (18-20 mo) mouse peritoneal macrophages, 100 nM, 20 h. The procedure: as §1, with “USA). […]” for “USA).”
Cd11bCre, and WT mice. Mice were injected intraperitoneally with 1.5 ml 3% (w/v) thioglycolate medium (BD Biosciences), and primary macrophages were isolated 3-4 days later by flushing with ice-cold 1×PBS buffer (Corning). […]

A further assay deals with human MDMs. The experiment in a line: Chemokine and cytokine multiplex assay, supernatant of human MDMs. Conditions: aged (>65 yo) human MDMs, stimulated 8 h later. The procedure: Hippocampal lysates or mouse plasma were stored at −80° C. and cytokine analysis was carried out at the Human Immune Monitoring Core (Stanford University) or Eve Technologies (Calgary, Alberta, Canada) using Luminex mouse 39-plex kits and Human 71-plex kits. Plates were read using a Luminex LabMap200 instrument or a MSD Chemiluminescence instrument with a lower bound of 100 beads per sample per measured cytokine. Each sample was tested in triplicate. Mean fluorescence intensity (MFI) was averaged over duplicate wells for each cytokine per sample on each plate. All were transcardially perfused prior to isolation of hippocampi and other brain tissue.
Peripheral blood mononuclear cells from de-identified healthy donors (young<35 years old, aged>65 years old) were obtained from the Stanford Blood Center and transferred to 50 ml conical tubes. […]
Plasmid-containing human GYS1 shRNA (Table 3) or Scr (2 μg) (HuSH shRNA shGYS1 Lenti Cloning Vector [pGFP-C-shLenti]) were incubated with a mixture of nucleofection solution and P4 primary cell supplement (82 μl:18 μl nucleofection solution:supplement) and placed in nucleofection cuvettes. […] Cells were then plated in 10-cm plates and incubated 37° C. under 5% CO2 for 8 h before GYS1 protein expression was analyzed by quantitative immunoblotting.

As for `CCCCC[C@H](O)/C=C/[C@H]1[C@H](O)CC(=O)[C@@H]1C/C=C\CCCC(=O)O` [PGE2, prostaglandin E2], in assay [1] (human MDMs, dose response), the “ECAR (extracellular acidification rate, glycolysis)” value is “decreased glycolysis” and the “basal OCR (oxygen consumption)” value is given as “suppressed oxygen consumption”. Moreover, the “OCR and ECAR” value in assay [2] was “no significant effects”. Further, in the assay with mouse astrocytes, the “OCR and ECAR” value is given as “no significant effects”.
Regarding `NS(=O)(=O)c1ccc(-n2nc(C(F)(F)F)cc2-c2ccc(Cl)cc2)cc1` [SC236], the “basal respiration and ECAR” value in assay [3] is listed as “partially phenocopies EP2 receptor antagonism”.
On to `CCCC1([C@H](O)C/C=C/[C@H]2[C@H](O)CC(=O)[C@@H]2CCCCCCC(=O)OC)CCC1` [butaprost], for which the “OCR in GYS1-deficient aged human MDMs” value in assay [1] (aged (>65 yo) human MDMs nucleofected with shGYS1, 100 nM, 8 h post nucleofection) was “refractory to treatment”. Besides, in assay [1] (aged human MDMs + GYS1 shRNA, 100 nM), the “bioenergetic or immune factor phenotypes of aged human MDMs lacking GYS1” value was “did not alter”. In addition, the “immune phenotypes (immune factors in supernatant) of aged human MDMs + GYS1 shRNA” value in the assay on human MDMs was “refractory to further EP2 receptor activation”. In addition, the “OCR and ECAR” value (in assay [2]; with mouse astrocytes) was “no significant effects” each time.

The values above are taken from patent US20220048987A1, “METHOD OF TREATMENT TO PREVENT OR REVERSE AGE-ASSOCIATED INFLAMMATION, COGNITIVE DECLINE, AND NEURODEGENERATION” (The Board of Trustees of the Leland Stanford Junior …, priority 2020, published 2022).
